# Patent US20220000967A1, “SYNTHETIC PEPTIDES INDUCING IMMUNOGENIC CELL DEATH” (SORBONNE UNIVERSITE, priority 2018, published 2022)
# Where two headings read alike, the source gives them in different places.
# How the values were obtained:
# [1] = Cell death by Annexin-V-APC/PI flow cytometry; type: cell-based, human; details: CEM, 2h; read-out: cytotoxic concentration that induces around 50% of cell death (CC50)
# Method: (§1) CEM, MOLT-4 (T-acute lymphoblastic leukemia, T-ALL), and L5178Y-R (murine lymphoblastic T cell line) were obtained from ATCC. Human and murine PBMCs, human CD4+ and CD8+ T cells, and primary lymphoid organ's cells were obtained from healthy individuals. Cells were maintained in RPMI-1640 medium supplemented with 10% of fetal bovine serum, 2 mM L-glutamine, 100 U/mL penicillin-streptomycin (GIBCO by Life Technologies, Grand Island, N.Y., USA), and incubated at 37° C. in a controlled humidified atmosphere with 5% CO2. Cell count was performed using trypan blue (0.4% Sigma-Aldrich), a Neubauer chamber and an optic microscope (Zeiss Primo Star) as proposed by the ATCC's standard protocols. Flow Cytometry. Cell Death Induction, and Inhibition Annexin-V-allophycocyanin (Ann-V-APC 0.1 μg/ml; BD Pharingen, San Jose Calif., USA), propidium iodide (PI, 0.5 μg/ml Sigma-Aldrich), and tetramethylrhodamine ethyl ester (TMRE, 20 nM, Sigma-Aldrich) were used for phosphatidylserine exposure, cell viability, and mitochondrial transmembrane potential (UΨm) quantification, respectively, in a BD AccuryC6 flow cytometer (BD Biosciences) (total population 10,000 cells). Data were analyzed using FlowJo software. 1×10^6 cells/mL were treated for 2h with PKHB1 (as indicated). For the inhibition assays, calcium chelator, BAPTA (5 mM, CalbioChem, Merck, Billerica Mass., USA); or the pancaspase inhibitor Q-VD-OPh (QVD, 10 μM, BioVision, Milpitas Calif., USA); were added 30 min before PKHB1.
# CEM [2] = assay: Cell death by Annexin-V-APC/PI flow cytometry; type: cell-based, human; details: 2h; for cell death percentage: PKHB1 200 μM
# Method: as §1
# [3] = Cell death by Annexin-V-APC/PI flow cytometry; type: cell-based; details: MOLT-4, 2h; read-out: cytotoxic concentration that induces around 50% of cell death (CC50)
# Method: as §1
# MOLT-4 [4] = assay: Cell death by Annexin-V-APC/PI flow cytometry; type: cell-based; details: MOLT-4, 2h; for cell death percentage: PKHB1 200 μM
# Method: as §1
# [5] = Cell death by Annexin-V-APC/PI flow cytometry; type: cell-based, murine; details: L5178Y-R, 2h; read-out: cytotoxic concentration that induces around 50% of cell death (CC50)
# Method: as §1
# L5178Y-R [6] = assay: Cell death by Annexin-V-APC/PI flow cytometry; type: cell-based, murine; details: 2h; for cell death percentage: PKHB1 200 μM
# Method: as §1
# CEM [7] = assay: Loss of mitochondrial transmembrane potential (TMRE); type: cell-based, human; details: PKHB1 CC50, 2h
# Method: as §1, with “For the inhibition assays, calcium chelator, BAPTA (5 mM, CalbioChem, Merck, Billerica Mass., USA); or the pancaspase inhibitor Q-VD-OPh (QVD, 10 μM, BioVision, Milpitas Calif., USA); were added 30 min before PKHB1.” left out
# MOLT-4 [8] = assay: as above; type: cell-based, human; details: PKHB1 CC50, 2h
# Method: as §1, with “For the inhibition assays, calcium chelator, BAPTA (5 mM, CalbioChem, Merck, Billerica Mass., USA); or the pancaspase inhibitor Q-VD-OPh (QVD, 10 μM, BioVision, Milpitas Calif., USA); were added 30 min before PKHB1.” left out
# L5178Y-R [9] = assay: as above; type: cell-based, murine; details: PKHB1 CC50, 2h
# Method: as §1, with “For the inhibition assays, calcium chelator, BAPTA (5 mM, CalbioChem, Merck, Billerica Mass., USA); or the pancaspase inhibitor Q-VD-OPh (QVD, 10 μM, BioVision, Milpitas Calif., USA); were added 30 min before PKHB1.” left out
# [10] = tested on: human PBMCs and CD4+ and CD8+ human T cells from healthy donors; assay: Selectivity on non-cancerous human cells (Annexin-V/PI); type: cell-based
# Method: Peripheral blood was collected from 10 healthy volunteers after obtaining written informed consent. This study was approved by the Institutional Ethics Committee at the Universidad Autonoma de Nuevo Leon, College of Biological Sciences. The animal study was approved by the Animal Ethical Committee (CEIBA), Number: 01/2015. All experiments were conducted according to Mexican regulation NOM-062-ZOO-1999. The blood from sacrificed mice was obtained by cardiac puncture, while human blood was collected by venipuncture. Peripheral blood mononuclear cells (PBMCs) isolation was performed by density gradient centrifugation using Ficoll-Hypaque-1119 (Sigma-Aldrich, St Louis, Mo., USA). 4×10^5 white blood cells were washed and seeded. […]
# CEM, MOLT-4 (T-acute lymphoblastic leukemia, T-ALL), and L5178Y-R (murine lymphoblastic T cell line) were obtained from ATCC. […] Cell Death Induction, and Inhibition Annexin-V-allophycocyanin (Ann-V-APC 0.1 μg/ml; BD Pharingen, San Jose Calif., USA), propidium iodide (PI, 0.5 μg/ml Sigma-Aldrich), and tetramethylrhodamine ethyl ester (TMRE, 20 nM, Sigma-Aldrich) were used for phosphatidylserine exposure, cell viability, and mitochondrial transmembrane potential (UΨm) quantification, respectively, in a BD AccuryC6 flow cytometer (BD Biosciences) (total population 10,000 cells). Data were analyzed using FlowJo software. […]
# [11] = tested on: murine PBMCs and primary cultures of bone marrow, spleen, thymus and lymph nodes; assay: Selectivity on non-cancerous murine cells (Ann/PI, MTT); type: cell-based; details: lymph nodes of healthy BALB/c mice
# Method: Peripheral blood was collected from 10 healthy volunteers after obtaining written informed consent. This study was approved by the Institutional Ethics Committee at the Universidad Autonoma de Nuevo Leon, College of Biological Sciences. The animal study was approved by the Animal Ethical Committee (CEIBA), Number: 01/2015. All experiments were conducted according to Mexican regulation NOM-062-ZOO-1999. The blood from sacrificed mice was obtained by cardiac puncture, while human blood was collected by venipuncture. Peripheral blood mononuclear cells (PBMCs) isolation was performed by density gradient centrifugation using Ficoll-Hypaque-1119 (Sigma-Aldrich, St Louis, Mo., USA). 4×10^5 white blood cells were washed and seeded. CD4+/CD8+ characterization was done using primary antibodies (CD4; MT310 sc-19641 and CD8; 32-M4 sc-1177, Santa Cruz, Calif., USA).
# Spleen, thymus, lymphatic node, and bone marrow cells were obtained from female BALB/c mice post-sacrifice. Spleen cells were obtained through perfusion, thymocytes and lymphatic node cells were obtained by maceration, and bone morrow cells (from one femur and tibia per mouse) were flushed with PBS. Cells washed and counted using trypan blue staining.
# CEM, MOLT-4 (T-acute lymphoblastic leukemia, T-ALL), and L5178Y-R (murine lymphoblastic T cell line) were obtained from ATCC. […] Data were analyzed using FlowJo software. […]
# L5178Y-R tumor = assay: PKHB1 treatment of L5178Y-R tumor-bearing mice; type: in vivo, BALB/c mice; details: 200 μg PKHB1 intraperitoneally weekly; day 18
# Method: The heparinized blood acquired from mice, was assessed using the Automatic Hematology Analyzer KontroLab. Blood smears were performed and fixed with methanol, stained with Wright's, and observed under the microscope to perform differential blood white cells counts.
# Six-to-eight-week-old BALB/c female mice were maintained in controlled environmental conditions (25° C. and 12h light/dark cycle) and were supplied with rodent food (Science diet) and water ad libitum. • Prophylactic vaccinations: L5178Y-R cells (1.5, 3, 5×10^6) were treated with 300 μM of PKHB1 (CC100) for 2h. Cell death was confirmed using trypan blue staining and flow cytometry. Treated cells were inoculated subcutaneously in 100 μl PBS into the left hind of the leg, whereas 2×10^6 untreated control cells were inoculated into the right hind 7 days later (42). • Tumor establishment and measurement: Tumor was established by the subcutaneous injection of 1×10^6 L5178Y-R cells in 100 μL PBS, into the left hind of the leg. Tumor volume and weight were measured three times per week using a caliper (Digimatic Caliper Mitutoyo Corporation, Japan) and a digital scale (American Weigh Scale-600-BLK, USA). When the tumor reached 100 mm^3 the first PKHB1 injection (200 μg) was applied (day 0). Tumor volume was determined with the formula: tumor volume (mm3)=[…]*A*B*C. Long-term memory assay: Mice in complete remission after PKHB1 treatment, were rechallenged with 2×10^6 cells in 100 μL of PBS, into the opposite limb, and tumor volume was measured like described above.
# Tissues and organs were obtained and fixed in 10% neutral formalin, embedded in paraffin, sectioned (5 µm thickness) and stained with H&E (Sigma-Aldrich, St Louis, Mo., USA). Histopathological analysis was done by an external veterinarian pathologist (National professional certificate 2593012). Immunohistochemistry was done using the appropriate primary antibody (CD4/CD8) and adding the biotinylated secondary antibody. Finally, hematoxylin-counterstained slides are coverslipped using resin as mounting solution and observed under microscopy.
# [12] = pre-incubated 30 min with Ca2+ chelator BAPTA
# [13] = pre-incubated 30 min with pan-caspase inhibitor Q-VD-OPH
structure (smiles),measurement,setting,value
"CSCC[C@H](NC(=O)[C@@H](NC(=O)[C@@H](NC(=O)[C@H](Cc1ccc(O)cc1)NC(=O)[C@H](Cc1ccccc1)NC(=O)[C@H](CCCNC(=N)N)NC(=O)[C@H](N)CCCCN)C(C)C)C(C)C)C(=O)N[C@@H](Cc1c[nH]c2ccccc12)C(=O)N[C@@H](CCCCN)C(=O)N[C@H](CCCCN)C(=O)O [PKHB1, (D)K-R-F-Y-V-V-M-W-K-(D)K]",CC50,[1],200 µM
same,cell death (Ann-V-APC/PI positive cells),"CEM [2]; 100, 200 and 300 μM",concentration-dependent
same,cell death percentage,CEM [2]; left alone,51%±4
same,cell death percentage,CEM [2]; [12],18%±11
same,cell death percentage,CEM [2]; [13],48%±5
same,CC50,[3],300 µM
same,cell death (Ann-V-APC/PI positive cells),"MOLT-4 [4]; 100, 200 and 300 μM",concentration-dependent
same,cell death percentage,MOLT-4 [4]; left alone,57%±4
same,cell death percentage,MOLT-4 [4]; [12],38%±3
same,cell death percentage,MOLT-4 [4]; [13],51%±6
same,CC50,[5],200 µM
same,cell death (Ann-V-APC/PI positive cells),"L5178Y-R [6]; 100, 200 and 300 μM",concentration-dependent
same,CC100,L5178Y-R [6],300 µM
same,cell death percentage,L5178Y-R [6]; left alone,52%±5
same,cell death percentage,L5178Y-R [6]; [12],21%±8
same,cell death percentage,L5178Y-R [6]; [13],49%±3
same,loss of mitochondrial membrane potential,CEM [7],49%±5
same,loss of mitochondrial membrane potential,MOLT-4 [8],61%±4
same,loss of mitochondrial membrane potential,L5178Y-R [9],51%±8
same,cell viability of non-cancerous cells,[10],did not significantly affected cell viability
same,cell viability of non-cancerous cells,[11],did not significantly affected cell viability
same,"tumor histology (H&E), leukocyte infiltration",L5178Y-R tumor,contained a mixture of lymphocytes and polymorphonuclear cells
